From patent publication US20230165242A1, “RODENTICIDAL BAIT AND METHOD OF CONTROLLING TARGET HARMFUL RODENTS” (priority 2020, published 2023)

Legend:
Assay type in all cases: in vivo, rat
[1] = test system: warfarin-sensitive male OFA-Sprague-Dawley rats; test: Synergy of bromadiolone and cholecalciferol, gavage, survival; conditions: gavage 5 consecutive days; bromadiolone 0.1 mg/kg alone, cholecalciferol 7.5 mg/kg alone, or both combined; after 20 days of observation
Excerpt: A group of 10 warfarin-sensitive male OFA-Sprague-Dawley rats (Charles River, L′Arbresles, France), aged 10 weeks and with a body weight between 160 and 180 g, are fed by gavage for 5 consecutive days with a gavage solution containing bromadiolone (LIPHATECH, France) and cholecalciferol (Sigma-Aldrich, France) in a solvent consisting of 95% (v/v) of oil and 5% (v/v) of DMSO. During this period of gavage, the rats are fed with a conventional solid feed and water in unlimited amounts. The rats are fed by gavage with a volume of this gavage solution so as to administer an amount of bromadiolone corresponding to 0.1 mg of bromadiolone per kilogram of body weight of the rat fed by gavage and an amount of cholecalciferol corresponding to 7.5 mg of cholecalciferol per kilogram of body weight of the rat fed by gavage. The rats in two control groups, each consisting of 10 male OFA-Sprague-Dawley rats, are fed by gavage in the same conditions with gavage solutions containing, respectively, bromadiolone alone so as to administer an amount of bromadiolone corresponding to 0.1 mg of bromadiolone per kilogram of body weight of the rat fed by gavage and cholecalciferol alone so as to administer an amount of cholecalciferol corresponding to 7.5 mg of cholecalciferol per kilogram of body weight of the rat fed by gavage. […]

[2] = test system: rats that are homozygotic carriers of the L120Q mutation; test: Relative toxicity of cholecalciferol, single gavage dose, L120Q rats; conditions: single gavage dose 30 mg/kg; 20 days
Excerpt: Warfarin-sensitive Sprague-Dawley rats (20 male rats and 20 female rats), male and female rats that are homozygotic carriers of the L120Q mutation, male and female Sprague-Dawley rats that are homozygotic carriers of the Y139F mutation and male and female brown rats (Rattus norvegicus) that are homozygotic carriers of the Y1 39C mutation are acclimatized for 5 days in the presence of a conventional solid feed and water in unlimited amounts. The rats are fed by gavage with a single dose of a gavage solution containing cholecalciferol (Sigma-Aldrich, France) in a solvent consisting of 95% (v/v) of oil and 5% (v/v) of DMSO. The rats are fed with a conventional solid feed and water in unlimited amounts. The amount of cholecalciferol administered is 30 mg of cholecalciferol per kilogram of body weight of the rat fed by gavage. The percentage of rats surviving gavage for 20 days, counting from the first day of gavage, is noted daily. The results given in Table 4 hereunder describe the mortality observed (“SD”, Sprague-Dawley). The amount of cholecalciferol ingested by the rodents during gavage corresponds to consumption by these rodents of a bait assayed at 300 ppm of cholecalciferol.

[3] = test system: warfarin-sensitive male OFA-Sprague-Dawley rats; test: Synergy of difethialone and cholecalciferol on warfarin-sensitive rats, gavage, survival; conditions: gavage once a day for 3 days; cholecalciferol alone 7.5 mg/kg; after 2 days of observation
Excerpt: A group of warfarin-sensitive male OFA-Sprague-Dawley rats (Charles River, L′Arbresles, France), aged 10 weeks and with a body weight between 160 and 180 g, are fed by gavage once a day for 3 consecutive days with a gavage solution containing difethialone (LIPHATECH, France) and cholecalciferol (Sigma-Aldrich, France) in a solvent consisting of 95% (v/v) of oil and 5% (v/v) of DMSO. During this period of gavage, the rats are fed with a conventional solid feed and water in unlimited amounts. The amounts of difethialone and cholecalciferol administered are 125 μg per kilogram of body weight of the rat fed by gavage and 7.5 mg per kilogram of body weight of the rat fed by gavage, respectively. The rats in two control groups, each consisting of OFA-Sprague-Dawley rats, are fed by gavage in the same conditions with gavage solutions containing difethialone alone (125 μg/kg) or cholecalciferol alone (7.5 mg/kg), respectively. The percentage of rats surviving gavage is recorded daily, for 20 days counting from the first day of gavage. The results presented [FIG. 3] show the variation of the percentage of rodents surviving (in %) as a function of time (t, in days) following the first day of gavage. The rats fed by gavage with the difethialone solution (♦) have 100% survival after 20 days of observation. […]

[4] = test system: Female Sprague-Dawley rats that are homozygotic carriers of the Y139F mutation in the Vkorc1 gene; test: Synergy of difethialone and cholecalciferol on warfarin-resistant female Sprague-Dawley Y139F rats; conditions: gavage once a day for 3 days; difethialone 0.125 mg/kg alone, cholecalciferol 7.5 mg/kg alone, or both combined; 22 days of observation
Excerpt: Female Sprague-Dawley rats that are homozygotic carriers of the Y139F mutation in the Vkorc1 gene, aged 10 weeks, are acclimatized for 5 days in the presence of a conventional solid feed and water in unlimited amounts. These female Sprague-Dawley Y139F rats are fed by gavage once a day for 3 consecutive days with a gavage solution containing difethialone (LIPHATECH, France) and cholecalciferol (Sigma-Aldrich, France) in a solvent consisting of 95% (v/v) of oil and 5% (v/v) of DMSO. During this period of gavage, the rats are fed with a conventional solid feed and water in unlimited amounts. The amounts of difethialone and cholecalciferol administered are 0.125 mg per kilogram of body weight of the rat fed by gavage and 7.5 mg per kilogram of body weight of the rat fed by gavage, respectively. The rats in two control groups, each consisting of OFA-Sprague-Dawley […] rats, are fed by gavage in the same conditions with gavage solutions containing, respectively, difethialone alone so as to administer an amount of difethialone corresponding to 0.125 mg per kilogram of body weight of the rat fed by gavage and cholecalciferol alone so as to administer an amount of cholecalciferol corresponding to 7.5 mg per kilogram of body weight of the rat fed by gavage. The percentage of rats surviving gavage is noted daily for 21 days counting from the first day of gavage. […]

SMILES: C=C1CC[C@H](O)C/C1=C/C=C1\CCC[C@]2(C)[C@@H]([C@H](C)CCCC(C)C)CC[C@@H]12 [cholecalciferol]
- percentage of rats surviving [1]: 70%
- Female mortality, % [2]: 5%
- Male mortality, % [2]: 15%
- percentage of rats surviving [3]: 60%
- percentage of rats surviving [4]: 90%
